Test results as given in patent US20240217978A1 (CHONG KUN DANG PHARMACEUTICAL CORP., priority 2021, published 2024).

Target: human adenosine A2a receptor (Homo sapiens (Human), UniProt P29274)
Assay: A2a receptor binding affinity, [3H]-NECA radioligand binding test
Conditions: [3H]-NECA 37 nM; membrane from HEK-293 cells transfected with human adenosine A2a receptor
Procedure, shortened: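 IC50 values (μM) come from displacement of [3H]-NECA, used at 37 nM final, on human A2a receptor membranes from transfected HEK-293 cells. Incubation lasted one hour at room temperature in Tris/MgCl2/EDTA buffer, pH 7.4; filter-bound radioactivity was counted by scintillation.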

human adenosine A2a receptor, sequence (P29274 whole entry): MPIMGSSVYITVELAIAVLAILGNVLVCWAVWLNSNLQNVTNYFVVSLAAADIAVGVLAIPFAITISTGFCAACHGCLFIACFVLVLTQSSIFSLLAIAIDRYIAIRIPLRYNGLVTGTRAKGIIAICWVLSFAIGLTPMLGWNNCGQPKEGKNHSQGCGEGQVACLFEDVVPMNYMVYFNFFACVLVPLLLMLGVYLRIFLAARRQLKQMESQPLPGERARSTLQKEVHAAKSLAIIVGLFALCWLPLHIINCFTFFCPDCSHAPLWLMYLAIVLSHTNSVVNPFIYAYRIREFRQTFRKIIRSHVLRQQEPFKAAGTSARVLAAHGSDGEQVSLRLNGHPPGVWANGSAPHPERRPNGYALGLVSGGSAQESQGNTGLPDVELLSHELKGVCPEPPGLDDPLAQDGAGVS

Row | IC50 | Compound
1 | 11 nM | Cc1ncc(C(=O)N2CCN(C(=O)[C@@H]3CCCN3c3nc(N)n4nc(-c5ccco5)nc4n3)CC2)s1 [Example 104]
2 | 3 nM | Nc1nc(N2CCC[C@H]2C(=O)N2CCN(C(=O)c3cscn3)CC2)nc2nc(-c3ccco3)nn12 [Example 105]
3 | 7 nM | Nc1nc(N2CCC[C@H]2C(=O)N2CCN(C(=O)C3CCS(=O)(=O)CC3)CC2)nc2nc(-c3ccco3)nn12 [Example 106]
4 | 9 nM | COCCN1CCN(C(=O)[C@@H]2CCN2c2nc(N)n3nc(-c4ccco4)nc3n2)CC1 [Example 107, (S)-(1-(7-amino-2-(furan-2-yl)-[1,2,4]triazolo[1,5-a][1,3,5]triazin-5-yl)azetidin-2-yl)(4-(2-methoxyethyl)piperazin-1-yl) methanone]
5 | 9 nM | CC(C)(F)CN1CCN(C(=O)[C@@H]2CCN2c2nc(N)n3nc(-c4ccco4)nc3n2)CC1 [Example 108, (S)-(1-(7-amino-2-(furan-2-yl)-[1,2,4]triazolo[1,5-a][1,3,5]triazin-5-yl)azetidin-2-yl)(4-(2-fluoro-2-methylpropyl)piperazin-1-yl)methanone]
6 | 13 nM | Nc1nc(N2CC[C@H]2C(=O)N2CCN(C(=O)c3ccccc3)CC2)nc2nc(-c3ccco3)nn12 [Example 109, (S)-(1-(7-amino-2-(furan-2-yl)-[1,2,4]triazolo[1,5-a][1,3,5]triazin-5-yl)azetidin-2-yl)(4-benzoylpiperazin-1-yl)methanone]
7 | 12 nM | Nc1nc(N2CC[C@H]2C(=O)N2CCN(C(=O)Nc3ccccc3)CC2)nc2nc(-c3ccco3)nn12 [Example 110, (S)-4-(1-(7-amino-2-(furan-2-yl)-[1,2,4]triazolo[1,5-a][1,3,5]triazine-5-yl)azetidin-2-carbonyl)-N-phenylpiperazin-1-carboxamide]
8 | 8 nM | CCCCN1CCN(C(=O)[C@@H]2CCN2c2nc(N)n3nc(-c4ccco4)nc3n2)CC1 [Example 111, (S)-(1-(7-amino-2-(furan-2-yl)-[1,2,4]triazolo[1,5-a][1,3,5]triazin-5-yl)azetidin-2-yl)(4-butylpiperazin-1-yl)methanone]
9 | 9 nM | Nc1nc(N2CC[C@H]2C(=O)N2CCN(c3ccc(F)cc3F)CC2)nc2nc(-c3ccco3)nn12 [Example 112, (S)-(1-(7-amino-2-(furan-2-yl)-[1,2,4]triazolo[1,5-a][1,3,5]triazin-5-yl)azetidin-2-yl)(4-(2,4-difluorophenyl)piperazin-1-yl)methanone]
10 | 9 nM | Nc1nc(N2CCC[C@H]2C(=O)N2CC(Cc3ccccc3)C2)nc2nc(-c3ccco3)nn12 [Example 113, (S)-(1-(7-amino-2-(furan-2-yl)-[1,2,4]triazolo[1,5-a][1,3,5]triazin-5-yl)pyrrolidin-2-yl)(3-benzylazetidin-1-yl)methanone]
11 | 8 nM | Nc1nc(N2CCC[C@H]2C(=O)N2CC(COc3ccccc3)C2)nc2nc(-c3ccco3)nn12 [Example 114, (S)-(1-(7-amino-2-(furan-2-yl)-[1,2,4]triazolo[1,5-a][1,3,5]triazin-5-yl)pyrrolidin-2-yl)(3-(phenoxymethyl)azetidin-1-yl)methanone]
12 | 11 nM | CC(C)NC(=O)N1CCN(C(=O)[C@@H]2CCCN2c2nc(N)n3nc(-c4ccco4)nc3n2)CC1 [Example 116, 4-((7-amino-2-(furan-2-yl)-[1,2,4]triazolo[1,5-a][1,3,5]triazin-5-yl)-L-prolyl)-N-isopropylpiperazin-1-carboxamide]
13 | 11 nM | Nc1nc(N2CCC[C@H]2C(=O)N2CCN(C(=O)NC3CCCCC3)CC2)nc2nc(-c3ccco3)nn12 [Example 117, 4-((7-amino-2-(furan-2-yl)-[1,2,4]triazolo[1,5-a][1,3,5]triazin-5-yl)-L-prolyl)-N-cyclohexylpiperazin-1-carboxamide]
14 | 21 nM | COCCN1CCN(C(=O)[C@H](C)Nc2nc(N)n3nc(-c4ccco4)nc3n2)CC1 [Example 118, (S)-2-((7-amino-2-(furan-2-yl)-[1,2,4]triazolo[1,5-a][1,3,5]triazin-5-yl)amino)-1-(4-(2-methoxyethyl)piperazin-1-yl)propan-1-one]
15 | 9 nM | C[C@H](Nc1nc(N)n2nc(-c3ccco3)nc2n1)C(=O)N1CCN(CC(C)(C)F)CC1 [Example 119, (S)-2-((7-amino-2-(furan-2-yl)-[1,2,4]triazolo[1,5-a][1,3,5]triazin-5-yl)amino)-1-(4-(2-fluoro-2-methylpropyl)piperazin-1-yl)propan-1-one]
16 | 6 nM | Nc1nc(N2CCC[C@H]2C(=O)N2CCN(c3ccccc3F)CC2)nc2nc(-c3ccco3)nn12 [Example 120, (S)-(1-(7-amino-2-(furan-2-yl)-[1,2,4]triazolo[1,5-a][1,3,5]triazin-5-yl)pyrrolidin-2-yl)(4-(2-fluorophenyl)piperazin-1-yl)methanone]
17 | 6 nM | Nc1nc(N2CCC[C@H]2C(=O)N2CCN(c3ccc(F)cc3)CC2)nc2nc(-c3ccco3)nn12 [Example 121, (S)-(1-(7-amino-2-(furan-2-yl)-[1,2,4]triazolo[1,5-a][1,3,5]triazin-5-yl)pyrrolidin-2-yl)(4-(4-fluorophenyl)piperazin-1-yl)methanone]
18 | 19 nM | COc1ccccc1N1CCN(C(=O)[C@@H]2CCCN2c2nc(N)n3nc(-c4ccco4)nc3n2)CC1 [Example 122, (S)-(1-(7-amino-2-(furan-2-yl)-[1,2,4]triazolo[1,5-a][1,3,5]triazin-5-yl)pyrrolidin-2-yl)(4-(2-methoxyphenyl)piperazin-1-yl)methanone]
19 | 0.5 nM | CCOC(=O)c1ccc(N2CCN(C(=O)[C@@H]3CCCN3c3nc(N)n4nc(-c5ccco5)nc4n3)CC2)cc1 [Example 123, Ethyl 4-(4-((7-amino-2-(furan-2-yl)-[1,2,4]triazolo[1,5-a][1,3,5]triazin-5-yl)-L-prolyl)piperazin-1-yl)benzoate]

Continued, molecule first:

Row | Compound | IC50
20 | CCC(O)(CC)CN1CCN(C(=O)[C@@H]2CCCN2c2nc(N)n3nc(-c4ccc(C)o4)nc3n2)CC1 [Example 88, (S)-(1-(7-amino-2-(5-methylfuran-2-yl)-[1,2,4]triazolo[1,5-a][1,3,5]triazin-5-yl)pyrrolidin-2-yl)(4-(2-ethyl-2-hydroxybutyl)piperazin-1-yl) methanone] | 12 nM
21 | Cc1ccc(-c2nc3nc(N4CCC[C@H]4C(=O)N4CCN(CC(F)(F)F)CC4)nc(N)n3n2)o1 [Example 89, (S)-(1-(7-amino-2-(5-methylfuran-2-yl)-[1,2,4]triazolo[1,5-a][1,3,5]triazin-5-yl)pyrrolidin-2-yl)(4-(2,2,2-trifluoroethyl)piperazin-1-yl)methanone] | 17 nM
22 | Cc1ccc(-c2nc3nc(N4CCC[C@H]4C(=O)N4CCN(CC(C)(C)F)CC4)nc(N)n3n2)o1 [Example 90, (S)-(1-(7-amino-2-(5-methylfuran-2-yl)-[1,2,4]triazolo[1,5-a][1,3,5]triazin-5-yl)pyrrolidin-2-yl)(4-(2-fluoro-2-methylpropyl)piperazin-1-yl)methanone] | 8 nM
23 | COCCN1CCN(C(=O)[C@@H]2CCCN2c2nc(N)n3nc(-c4ccc(C)o4)nc3n2)CC1 [Example 91, (S)-(1-(7-amino-2-(5-methylfuran-2-yl)-[1,2,4]triazolo[1,5-a][1,3,5]triazin-5-yl)pyrrolidin-2-yl)(4-(2-methoxyethyl)piperazin-1-yl)methanone] | 7 nM
24 | COCCN1CCN(C(=O)[C@H]2CCCN2c2nc(N)n3nc(-c4ccco4)nc3n2)CC1 [Example 92, (R)-(1-(7-amino-2-(furan-2-yl)-[1,2,4]triazolo[1,5-a][1,3,5]triazin-5-yl)pyrrolidin-2-yl)(4-(2-methoxyethyl)piperazin-1-yl)methanone] | 2290 nM
25 | CC(C)(F)CN1CCN(C(=O)[C@H]2CCCN2c2nc(N)n3nc(-c4ccco4)nc3n2)CC1 [Example 93, (R)-(1-(7-amino-2-(furan-2-yl)-[1,2,4]triazolo[1,5-a][1,3,5]triazin-5-yl)pyrrolidin-2-yl)(4-(2-fluoro-2-methylpropyl)piperazin-1-yl)methanone] | 3790 nM
26 | Nc1nc(N2CCC[C@@H]2C(=O)N2CCN(CC(F)(F)F)CC2)nc2nc(-c3ccco3)nn12 [Example 94, (R)-(1-(7-amino-2-(furan-2-yl)-[1,2,4]triazolo[1,5-a][1,3,5]triazin-5-yl)pyrrolidin-2-yl)(4-(2,2,2-trifluoroethyl)piperazin-1-yl)methanone] | 4390 nM
27 | Nc1nc(N2CCC[C@@H]2C(=O)N2CCN(Cc3ccccc3)CC2)nc2nc(-c3ccco3)nn12 [Example 95, (R)-(1-(7-amino-2-(furan-2-yl)-[1,2,4]triazolo[1,5-a][1,3,5]triazin-5-yl)pyrrolidin-2-yl)(4-benzylpiperazin-1-yl)methanone] | 4990 nM
28 | Nc1nc(N2CCC[C@@H]2C(=O)N2CCN(Cc3ccc(F)cc3F)CC2)nc2nc(-c3ccco3)nn12 [Example 96, (R)-(1-(7-amino-2-(furan-2-yl)-[1,2,4]triazolo[1,5-a][1,3,5]triazin-5-yl)pyrrolidin-2-yl)(4-(2,4-difluorobenzyl)piperazin-1-yl)methanone] | 1630 nM
29 | Nc1nc(N2CCC[C@@H]2C(=O)N2CCN(c3ccc(F)cc3F)CC2)nc2nc(-c3ccco3)nn12 [Example 97, (R)-(1-(7-amino-2-(furan-2-yl)-[1,2,4]triazolo[1,5-a][1,3,5]triazin-5-yl)pyrrolidin-2-yl)(4-(2,4-difluorophenyl)piperazin-1-yl)methanone] | 3350 nM
30 | Nc1nc(N2CCC[C@@H]2C(=O)N2CCN(C(=O)c3ccccc3)CC2)nc2nc(-c3ccco3)nn12 [Example 98] | 11300 nM
31 | Nc1nc(N2CCC[C@@H]2C(=O)N2CCN(C(=O)Nc3ccccc3)CC2)nc2nc(-c3ccco3)nn12 [Example 100] | 9460 nM
32 | Cn1cnc(C(=O)N2CCN(C(=O)[C@@H]3CCCN3c3nc(N)n4nc(-c5ccco5)nc4n3)CC2)c1 [Example 102] | 10 nM
33 | Cc1cnc(C(=O)N2CCN(C(=O)[C@@H]3CCCN3c3nc(N)n4nc(-c5ccco5)nc4n3)CC2)s1 [Example 103] | 6 nM
